Here are results for 53 molecules from US10124004B2, “Pyrido[3,4-d]pyrimidine derivative and pharmaceutically acceptable salt thereof” (Teijin Pharma Limited, priority 2015, dated 2018).

Some results are limits rather than exact numbers.

Assay [1] deals with T1, CDK4/cyclin D3 (Homo sapiens, UniProt P11802).
T1 construct: purchased Carna Biosciences, Inc. QS S Assist CDK4/Cyclin D3_FP Kit
Briefly: Human CDK4/cyclin D3 inhibitory activity (QS S Assist CDK4/Cyclin D3_FP Kit, IMAP fluorescence polarization). The assay is classed as biochemical. As to conditions: Human CDK4/cyclin D3 inhibitory activity; read-out: CDK4 Activity symbol. A digest of the protocol:
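Percent inhibition, relative to DMSO with and without enzyme, was curve-fitted to give IC50 from polarization (ex 485, em 535 nm). The 45-min room-temperature reaction used 12.5-25 ng/well enzyme, kit ATP/substrate/metal mix, and HEPES pH 7.4 buffer with Tween20 and DTT, followed by 30-min IMAP binding in the dark.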

The target of assay [2] is T2, CDK2/cyclin A2 (Homo sapiens, UniProt P24941).
T2 construct: purchased Carna Biosciences, Inc. QS S Assist CDK2/Cyclin A2_FP Kit
Briefly: Human CDK2/cyclin A2 inhibitory activity (QS S Assist CDK2/Cyclin A2_FP Kit, IMAP fluorescence polarization). The class given is biochemical. Conditions: Human CDK2/cyclin A2 inhibitory activity; read-out: CDK2 Activity symbol. The gist of the method:
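Kinase activity read as fluorescence polarization (485/535 nm) after phosphorylated fluorescent substrate binds IMAP reagent (30 min, RT, dark). Enzyme (2.5 ng/well) reacted 60 min at RT with ATP/substrate/metal in HEPES pH 7.4 buffer with Tween 20 and DTT; no-enzyme wells define 0% activity; IC50 by curve fit.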
(In general: Fluorescence polarisation rises when a labelled molecule tumbles more slowly, as on binding a larger partner.)

T1 sequence (P11802 whole entry): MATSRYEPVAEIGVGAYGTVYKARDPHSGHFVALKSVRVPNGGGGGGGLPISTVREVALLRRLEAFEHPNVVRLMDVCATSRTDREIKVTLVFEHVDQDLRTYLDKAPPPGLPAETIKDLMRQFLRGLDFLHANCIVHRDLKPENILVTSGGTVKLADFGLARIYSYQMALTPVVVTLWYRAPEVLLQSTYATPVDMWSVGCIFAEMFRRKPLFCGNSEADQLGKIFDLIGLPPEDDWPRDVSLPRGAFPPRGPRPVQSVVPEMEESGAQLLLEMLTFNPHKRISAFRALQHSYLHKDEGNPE
T1 sequence (P30281 whole entry partner): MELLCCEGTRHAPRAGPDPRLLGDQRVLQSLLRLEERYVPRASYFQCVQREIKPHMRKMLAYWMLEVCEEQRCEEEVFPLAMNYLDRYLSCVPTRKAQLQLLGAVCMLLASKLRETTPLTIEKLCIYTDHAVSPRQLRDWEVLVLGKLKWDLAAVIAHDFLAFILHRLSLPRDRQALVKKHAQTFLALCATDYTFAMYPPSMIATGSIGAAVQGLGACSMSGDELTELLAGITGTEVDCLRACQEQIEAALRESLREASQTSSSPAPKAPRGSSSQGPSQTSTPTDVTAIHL

Regarding `CC(C)Nc1nc(C(F)F)cc2cnc(Nc3ccc(CN4CCOCC4)cn3)nc12` [Compound 94], the results for the IC50 in assay [1] and in assay [2] were less than 10 nM and not below 100 nM, respectively.

`CC(C)Nc1nc(C(F)F)cc2cnc(Nc3ccc(NC(=O)CO)cn3)nc12` [Compound 95]: the IC50 is not below 100 nM in assay [1] and 10 to 100 nM in assay [2].

For `CC(C)Nc1nc(C(F)F)cc2cnc(Nc3ccc(C(N)=O)cn3)nc12` [Compound 96], the IC50 in assay [1] and in assay [2] was 10 to 100 nM throughout.

Consider `CC(C)Nc1nc(C(F)F)cc2cnc(Nc3ccc(NC(=O)C(N)=O)cn3)nc12` [Compound 97], for which the IC50 is 10 to 100 nM in assay [1] and not below 100 nM in assay [2].

Consider `CC(C)Nc1nc(C(F)F)cc2cnc(Nc3ccc(NC(=O)CCO)cn3)nc12` [Compound 98], for which the IC50 in assay [1] and in assay [2] was not below 100 nM in each case.

For `CC(C)Nc1nc(C(F)F)cc2cnc(Nc3ccc(-c4ccccc4)cn3)nc12` [Compound 99], the IC50 in assay [1] and in assay [2] was not below 100 nM throughout.

`CC(C)Nc1nc(C(F)F)cc2cnc(Nc3ccc(-c4ccncc4)cn3)nc12` [Compound 100]: the IC50 was 10 to 100 nM in assay [1] and not below 100 nM in assay [2].

With `CC(C)Nc1nc(C(F)F)c(Cl)c2cnc(Nc3ccc(N4CCNCC4)cn3)nc12` [Compound 101], the IC50 was less than 10 nM in assay [1] and not below 100 nM in assay [2].

For the molecule `COC(=O)CCc1ccc(Nc2ncc3cc(C(F)F)nc(NC(C)C)c3n2)nc1` [Compound 102], the IC50 in assay [1] was 10 to 100 nM; in assay [2], not below 100 nM.

Regarding `CC(C)Nc1nc(C(F)F)cc2cnc(Nc3ccc(OCCN4CCCC4=O)cn3)nc12` [Compound 103], the figures for the IC50 in assay [1] and in assay [2] were less than 10 nM and not below 100 nM, respectively.

With `Cc1cccc(Nc2ncc3cc(C(F)F)nc(NC(C)C)c3n2)n1` [Compound 104], the IC50 was 10 to 100 nM in assay [1] and not below 100 nM in assay [2].

For `CC(O)c1cc2cnc(Nc3ccc(N4CCNCC4)cn3)nc2c(NC(C)c2cc[nH]n2)n1` (stereo not shown) [Compound 105], the values for the IC50 in assay [1] and in assay [2] were less than 10 nM and not below 100 nM, respectively.

For the molecule `CC(O)c1cc2cnc(Nc3ccc(N4CCNCC4)cn3)nc2c(NC(C)c2cn[nH]c2)n1` (stereo not shown) [Compound 106], the IC50 in assay [1] is less than 10 nM; in assay [2], not below 100 nM.

For `CC(C)Nc1nc(C(F)F)cc2cnc(Nc3ccc(C4CCC(O)CC4)cn3)nc12` (stereo not shown) [Compound 107], the IC50 was 10 to 100 nM in assay [1] and not below 100 nM in assay [2].

As to `CC(C)Nc1nc(C(F)F)cc2cnc(Nc3ccc(CCCCO)cn3)nc12` [Compound 108], the IC50 in assay [1] was less than 10 nM; in assay [2], 10 to 100 nM.

Take `CC(C)Nc1nc(C(F)F)cc2cnc(Nc3ccc(C(=O)NCCO)cn3)nc12` [Compound 109]: the IC50 in assay [1] is 10 to 100 nM; in assay [2], not below 100 nM.

Turning to `CC(C)Nc1nc(C(F)F)cc2cnc(Nc3ccc(-c4ccc(O)cc4)cn3)nc12` [Compound 110], the IC50 in assay [1] and in assay [2] was not below 100 nM in each case.

Consider `CC(C)Nc1nc(C(F)F)cc2cnc(Nc3ccc(CCC(=O)O)cn3)nc12` [Compound 111], for which the values for the IC50 in assay [1] and in assay [2] were 10 to 100 nM and not below 100 nM, respectively.

For the molecule `CC(C)Nc1nc(C(F)F)cc2cnc(Nc3ccc(S(=O)(=O)CCCO)cn3)nc12` [Compound 112], the IC50 in assay [1] and in assay [2] was 10 to 100 nM each time.

As for `CC(C)Nc1nc(C(F)F)cc2cnc(Nc3ccc(CN4CCS(=O)(=O)CC4)cn3)nc12` [Compound 113], the IC50 in assay [1] was less than 10 nM; in assay [2], not below 100 nM.

Turning to `CC(C)Nc1nc(C(F)F)cc2cnc(Nc3ccc(CN4CCN(S(=O)(=O)N(C)C)CC4)cn3)nc12` [Compound 114], the IC50 in assay [1] is 10 to 100 nM; in assay [2], not below 100 nM.

With `CC(C)Nc1nc(C(F)F)cc2cnc(Nc3ccc(CN4CCN(S(C)(=O)=O)CC4)cn3)nc12` [Compound 115], the IC50 in assay [1] was less than 10 nM; in assay [2], not below 100 nM.

For `CC(C)Nc1nc(C(F)F)cc2cnc(Nc3ccc(CN4CCN(CC(F)(F)F)CC4)cn3)nc12` [Compound 116], the figures for the IC50 in assay [1] and in assay [2] were 10 to 100 nM and not below 100 nM, respectively.

As for `CC(=O)N1CCN(Cc2ccc(Nc3ncc4cc(C(F)F)nc(NC(C)C)c4n3)nc2)CC1` [Compound 117], the IC50 is less than 10 nM in assay [1] and not below 100 nM in assay [2].

In the case of `CC(C)Nc1nc(C(F)F)cc2cnc(Nc3ccc(CN4CCC(C(C)(C)O)CC4)cn3)nc12` [Compound 118], the IC50 in assay [1] was less than 10 nM; in assay [2], 10 to 100 nM.

For the molecule `CC(C)Nc1nc(C(F)F)cc2cnc(Nc3ccc(O[C@H]4CC[C@@H](O)CC4)cn3)nc12` [Compound 119], the values for the IC50 in assay [1] and in assay [2] were 10 to 100 nM and not below 100 nM, respectively.

On to `CC(C)Nc1nc(C(F)F)cc2cnc(Nc3ccc(O[C@H]4CC[C@H](O)CC4)cn3)nc12` [Compound 120], for which the IC50 was 10 to 100 nM in assay [1] and not below 100 nM in assay [2].

Take `CC(C)Nc1nc(C(F)F)cc2cnc(Nc3ccc(CCC(N)=O)cn3)nc12` [Compound 121]: the IC50 in assay [1] is less than 10 nM; in assay [2] it was 10 to 100 nM.

With `CC(C)Nc1nc(C(F)F)cc2cnc(Nc3ccc(OCC(C)(C)CO)cn3)nc12` [Compound 122], the IC50 in assay [1] was 10 to 100 nM; in assay [2] it was not below 100 nM.

On to `CC(C)Nc1nc(C(F)F)cc2cnc(Nc3ccc(OCCCN4CCCC4=O)cn3)nc12` [Compound 123], for which the IC50 in assay [1] was 10 to 100 nM; in assay [2], not below 100 nM.

Take `CC(=O)NCc1ccc(Nc2ncc3cc(C(F)F)nc(NC(C)C)c3n2)nc1` [Compound 124]: the IC50 in assay [1] was 10 to 100 nM; in assay [2] it was not below 100 nM.

Take `CC(C)Nc1nc(C(F)F)cc2cnc(Nc3ccc(CN4CCC(C(N)=O)CC4)cn3)nc12` [Compound 125]: the IC50 in assay [1] was less than 10 nM; in assay [2], 10 to 100 nM.

On to `CC(C)Nc1nc(C(F)F)cc2cnc(Nc3ccc(CN4CC(O)C4)cn3)nc12` [Compound 126], for which the IC50 in assay [1] and in assay [2] was not below 100 nM each time.

Take `CC(C)Nc1nc(C(F)F)cc2cnc(Nc3ccc(CN4CCCC(CO)C4)cn3)nc12` (stereo not shown) [Compound 127]: the IC50 in assay [1] is less than 10 nM; in assay [2], 10 to 100 nM.

Consider `CC(C)Nc1nc(C(F)F)cc2cnc(Nc3ccc(CN4CCCC(O)C4)cn3)nc12` (stereo not shown) [Compound 128], for which the figures for the IC50 in assay [1] and in assay [2] were less than 10 nM and 10 to 100 nM, respectively.

For `CC(C)Nc1nc(C(F)F)cc2cnc(Nc3ccc(CN4CCC(C(=O)O)CC4)cn3)nc12` [Compound 129], the IC50 was less than 10 nM in assay [1] and 10 to 100 nM in assay [2].

For `CC(C)Nc1nc(C(F)F)cc2cnc(Nc3ccc(CN4CCC(N(C)C)CC4)cn3)nc12` [Compound 130], the figures for the IC50 in assay [1] and in assay [2] were less than 10 nM and 10 to 100 nM, respectively.

On to `CC(C)Nc1nc(C(F)F)cc2cnc(Nc3ccc(CN4CCNC(=O)C4)cn3)nc12` [Compound 131], for which the results for the IC50 in assay [1] and in assay [2] were less than 10 nM and 10 to 100 nM, respectively.

Regarding `CC(C)Nc1nc(C(F)F)cc2cnc(Nc3ccc(CC(N)=O)cn3)nc12` [Compound 132], the figures for the IC50 in assay [1] and in assay [2] were less than 10 nM and 10 to 100 nM, respectively.

Regarding `CC(C)Nc1nc(C(F)F)cc2cnc(Nc3ccc(CC(=O)O)cn3)nc12` [Compound 133], the IC50 in assay [1] is 10 to 100 nM; in assay [2] it was not below 100 nM.

With `CC(C)Nc1nc(C(F)F)cc2cnc(Nc3ccc(CCO)cn3)nc12` [Compound 134], the IC50 in assay [1] was less than 10 nM; in assay [2], 10 to 100 nM.

Consider `CC(C)Nc1nc(C(F)F)cc2cnc(Nc3ccc(CCCC(N)=O)cn3)nc12` [Compound 135], for which the IC50 in assay [1] was less than 10 nM; in assay [2] it was not below 100 nM.

For `CC(C)Nc1nc(C(F)F)cc2cnc(Nc3ccc(CCCC(=O)O)cn3)nc12` [Compound 136], the values for the IC50 in assay [1] and in assay [2] were 10 to 100 nM and not below 100 nM, respectively.

Turning to `CC(C)Nc1nc(C(F)F)cc2cnc(Nc3ccc(N4CC[C@H](O)CC4=O)cn3)nc12` [Compound 137], the IC50 in assay [1] was less than 10 nM; in assay [2], 10 to 100 nM.

Consider `CC(C)Nc1nc(C(F)F)cc2cnc(Nc3ccc(CNC(N)=O)cn3)nc12` [Compound 138], for which the figures for the IC50 in assay [1] and in assay [2] were less than 10 nM and 10 to 100 nM, respectively.

With `CC(=O)N(C)Cc1ccc(Nc2ncc3cc(C(F)F)nc(NC(C)C)c3n2)nc1` [Compound 139], the figures for the IC50 in assay [1] and in assay [2] were less than 10 nM and 10 to 100 nM, respectively.

Regarding `CC(C)Nc1nc(C(F)F)cc2cnc(Nc3ccc(CNS(C)(=O)=O)cn3)nc12` [Compound 140], the IC50 is less than 10 nM in assay [1] and not below 100 nM in assay [2].

Regarding `CC(C)Nc1nc(C(F)F)cc2cnc(Nc3ccc(CN(C)S(C)(=O)=O)cn3)nc12` [Compound 141], the IC50 is less than 10 nM in assay [1] and not below 100 nM in assay [2].

For `CC(C)Nc1nc(C(F)F)cc2cnc(Nc3ccc(CN4CCC(O)CC4)cn3)nc12` [Compound 142], the IC50 in assay [1] was less than 10 nM; in assay [2], 10 to 100 nM.

As for `CC(C)Nc1nc(C(F)F)cc2cnc(Nc3ccc(CN(CC4CCOCC4)S(C)(=O)=O)cn3)nc12` [Compound 143], the figures for the IC50 in assay [1] and in assay [2] were 10 to 100 nM and not below 100 nM, respectively.

In the case of `CC(=O)N(Cc1ccc(Nc2ncc3cc(C(F)F)nc(NC(C)C)c3n2)nc1)CC1CCOCC1` [Compound 144], the figures for the IC50 in assay [1] and in assay [2] were less than 10 nM and not below 100 nM, respectively.

Turning to `CC(=O)N(Cc1ccc(Nc2ncc3cc(C(F)F)nc(NC(C)C)c3n2)nc1)C[C@H]1CCCO1` [Compound 145], the IC50 in assay [1] is less than 10 nM; in assay [2], 10 to 100 nM.

Consider `CC(=O)N(Cc1ccc(Nc2ncc3cc(C(F)F)nc(NC(C)C)c3n2)nc1)C[C@@H]1CCCO1` [Compound 146], for which the IC50 in assay [1] is less than 10 nM; in assay [2], not below 100 nM.
